ChEMBL document CHEMBL1201862, “PubChem BioAssay data set” (2004)
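96-well plates; 48 h exposure; 5 concentrations. Endpoints by linear interpolation between flanking doses. Not reached: highest tested concentration assigned. At the GI50, growth is halved.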 The source made the active and inactive calls. Rule as the data show it: active = GI50 up to about 1.1 µM and inactive = higher.

Columns and labels:
Experiment in all cases: growth of human tumour cells (NCI), 48 h
MDA-MB-435 = tested on: MDA-MB-435
IGROV-1 = tested on: IGROV-1
UACC-62 = tested on: UACC-62
NCI-H23 = tested on: NCI-H23
SR = tested on: SR
OVCAR-5 = tested on: OVCAR-5
OVCAR-3 = tested on: OVCAR-3
A498 = tested on: A498
SF-539 = tested on: SF-539
TK-10 = tested on: TK-10
A549 = tested on: A549
UACC-257 = tested on: UACC-257
MDA-N = tested on: MDA-N
UO-31 = tested on: UO-31
COLO 205 = tested on: COLO 205
PC-3 = tested on: PC-3
T47D = tested on: T47D
RXF 393 = tested on: RXF 393
SF-268 = tested on: SF-268
ACHN = tested on: ACHN
HOP-62 = tested on: HOP-62
HL-60 = tested on: HL-60
NCI-H460 = tested on: NCI-H460
MDA-MB-231 = tested on: MDA-MB-231
DU-145 = tested on: DU-145
HCT-15 = tested on: HCT-15
M14 = tested on: M14
LOX IMVI = tested on: LOX IMVI
786-0 = tested on: 786-0
OVCAR-8 = tested on: OVCAR-8
NCI-H522 = tested on: NCI-H522
SK-MEL-2 = tested on: SK-MEL-2
HT-29 = tested on: HT-29
MOLT-4 = tested on: MOLT-4
CAKI-1 = tested on: CAKI-1
SK-MEL-5 = tested on: SK-MEL-5
SK-OV-3 = tested on: SK-OV-3
MCF7 = tested on: MCF7
U-251 = tested on: U-251
Hs-578T = tested on: Hs-578T
BT-549 = tested on: BT-549
SNB-75 = tested on: SNB-75
HCT-116 = tested on: HCT-116
NCI/ADR-RES = tested on: NCI/ADR-RES
NCI-H226 = tested on: NCI-H226
K562 = tested on: K562
SNB-19 = tested on: SNB-19
SN12C = tested on: SN12C
Malme-3M = tested on: Malme-3M
KM12 = tested on: KM12
SK-MEL-28 = tested on: SK-MEL-28
RPMI-8226 = tested on: RPMI-8226
SF-295 = tested on: SF-295
SW-620 = tested on: SW-620
OVCAR-4 = tested on: OVCAR-4
CCRF-CEM = tested on: CCRF-CEM
HOP-92 = tested on: HOP-92
EKVX = tested on: EKVX

**Q.** For `CN(C)N1C(=O)CC2(CCN(CCCC(=O)c3ccc(F)cc3)CC2)C1=O`, which GI50 (MDA-MB-435) is on record?
**A.** > 100 µM (inactive)

**Q.** What about the GI50 (IGROV-1) of the same molecule?
**A.** > 100 µM (inactive)

**Q.** What about the GI50 (UACC-62) of the same molecule?
**A.** > 100 µM (inactive)

**Q.** What about the GI50 (NCI-H23) of the same molecule?
**A.** > 100 µM (inactive)

**Q.** What about the GI50 (SR) of the same molecule?
**A.** > 100 µM (inactive)

**Q.** And the GI50 (OVCAR-5)?
**A.** > 100 µM (inactive)

**Q.** And the GI50 (OVCAR-3)?
**A.** > 100 µM (inactive)

**Q.** And the GI50 (A498)?
**A.** > 100 µM (inactive)

**Q.** And the GI50 (SF-539)?
**A.** > 100 µM (inactive)

**Q.** And the GI50 (TK-10)?
**A.** > 100 µM (inactive)

**Q.** And the GI50 (A549)?
**A.** > 100 µM (inactive)

**Q.** And the GI50 (UACC-257)?
**A.** > 100 µM (inactive)

**Q.** And the GI50 (MDA-N)?
**A.** > 100 µM (inactive)

**Q.** And the GI50 (UO-31)?
**A.** > 100 µM (inactive)

**Q.** And the GI50 (COLO 205)?
**A.** > 100 µM (inactive)

**Q.** What about the GI50 (PC-3) of the same molecule?
**A.** > 100 µM (inactive)

**Q.** And the GI50 (T47D)?
**A.** > 100 µM (inactive)

**Q.** What about the GI50 (RXF 393) of the same molecule?
**A.** > 100 µM (inactive)

**Q.** What about the GI50 (SF-268) of the same molecule?
**A.** > 100 µM (inactive)

**Q.** What about the GI50 (ACHN) of the same molecule?
**A.** > 100 µM (inactive)

**Q.** And the GI50 (HOP-62)?
**A.** > 100 µM (inactive)

**Q.** What about the GI50 (HL-60) of the same molecule?
**A.** > 100 µM (inactive)

**Q.** What about the GI50 (NCI-H460) of the same molecule?
**A.** > 100 µM (inactive)

**Q.** And the GI50 (MDA-MB-231)?
**A.** > 100 µM (inactive)

**Q.** What about the GI50 (DU-145) of the same molecule?
**A.** > 100 µM (inactive)

**Q.** And the GI50 (HCT-15)?
**A.** > 100 µM

**Q.** What about the GI50 (M14) of the same molecule?
**A.** > 100 µM (inactive)

**Q.** And the GI50 (LOX IMVI)?
**A.** > 100 µM (inactive)

**Q.** What about the GI50 (786-0) of the same molecule?
**A.** > 100 µM (inactive)

**Q.** What about the GI50 (OVCAR-8) of the same molecule?
**A.** > 100 µM (inactive)

**Q.** What about the GI50 (NCI-H522) of the same molecule?
**A.** > 100 µM (inactive)

**Q.** And the GI50 (SK-MEL-2)?
**A.** > 100 µM (inactive)

**Q.** And the GI50 (HT-29)?
**A.** > 100 µM (inactive)

**Q.** And the GI50 (MOLT-4)?
**A.** > 100 µM (inactive)

**Q.** And the GI50 (CAKI-1)?
**A.** > 100 µM (inactive)

**Q.** What about the GI50 (SK-MEL-5) of the same molecule?
**A.** > 100 µM (inactive)

**Q.** And the GI50 (SK-OV-3)?
**A.** > 100 µM (inactive)

**Q.** And the GI50 (MCF7)?
**A.** > 100 µM (inactive)

**Q.** What about the GI50 (U-251) of the same molecule?
**A.** > 100 µM (inactive)

**Q.** And the GI50 (Hs-578T)?
**A.** > 100 µM (inactive)

**Q.** What about the GI50 (BT-549) of the same molecule?
**A.** > 100 µM (inactive)

**Q.** And the GI50 (SNB-75)?
**A.** > 100 µM (inactive)

**Q.** And the GI50 (HCT-116)?
**A.** > 100 µM (inactive)

**Q.** And the GI50 (NCI/ADR-RES)?
**A.** > 100 µM (inactive)

**Q.** And the GI50 (NCI-H226)?
**A.** > 100 µM (inactive)

**Q.** What about the GI50 (K562) of the same molecule?
**A.** > 100 µM (inactive)

**Q.** And the GI50 (SNB-19)?
**A.** > 100 µM (inactive)

**Q.** What about the GI50 (SN12C) of the same molecule?
**A.** > 100 µM (inactive)

**Q.** What about the GI50 (Malme-3M) of the same molecule?
**A.** > 100 µM (inactive)

**Q.** And the GI50 (KM12)?
**A.** > 100 µM (inactive)

**Q.** And the GI50 (SK-MEL-28)?
**A.** > 100 µM (inactive)

**Q.** And the GI50 (RPMI-8226)?
**A.** > 100 µM (inactive)

**Q.** And the GI50 (SF-295)?
**A.** > 100 µM (inactive)

**Q.** And the GI50 (SW-620)?
**A.** > 100 µM (inactive)

**Q.** `O=C(CN1CCNCCN(CC(=O)N2CCCCC2)CCNCC1)N1CCCCC1` was tested. Which GI50 (MDA-MB-435) did it give?
**A.** > 100 µM (inactive)

**Q.** What about the GI50 (IGROV-1) of the same molecule?
**A.** 33.5 µM (inactive)

**Q.** What about the GI50 (UACC-62) of the same molecule?
**A.** > 100 µM (inactive)

**Q.** And the GI50 (SR)?
**A.** 34.4 µM (inactive)

**Q.** What about the GI50 (OVCAR-5) of the same molecule?
**A.** > 100 µM (inactive)

**Q.** What about the GI50 (OVCAR-3) of the same molecule?
**A.** > 100 µM (inactive)

**Q.** What about the GI50 (A498) of the same molecule?
**A.** > 100 µM (inactive)

**Q.** What about the GI50 (SF-539) of the same molecule?
**A.** > 100 µM (inactive)

**Q.** And the GI50 (TK-10)?
**A.** > 100 µM (inactive)

**Q.** And the GI50 (A549)?
**A.** 50.8 µM (inactive)

**Q.** And the GI50 (UACC-257)?
**A.** > 100 µM (inactive)

**Q.** What about the GI50 (MDA-N) of the same molecule?
**A.** > 100 µM (inactive)

**Q.** And the GI50 (UO-31)?
**A.** > 100 µM (inactive)

**Q.** What about the GI50 (COLO 205) of the same molecule?
**A.** > 100 µM (inactive)

**Q.** And the GI50 (PC-3)?
**A.** > 100 µM (inactive)

**Q.** And the GI50 (T47D)?
**A.** > 100 µM (inactive)

**Q.** And the GI50 (ACHN)?
**A.** > 100 µM (inactive)

**Q.** And the GI50 (OVCAR-4)?
**A.** > 100 µM (inactive)

**Q.** What about the GI50 (HOP-62) of the same molecule?
**A.** > 100 µM (inactive)

**Q.** What about the GI50 (HL-60) of the same molecule?
**A.** 32.2 µM (inactive)

**Q.** What about the GI50 (NCI-H460) of the same molecule?
**A.** 43 µM (inactive)

**Q.** What about the GI50 (MDA-MB-231) of the same molecule?
**A.** > 100 µM (inactive)

**Q.** What about the GI50 (DU-145) of the same molecule?
**A.** > 100 µM (inactive)

**Q.** And the GI50 (HCT-15)?
**A.** > 100 µM

**Q.** And the GI50 (M14)?
**A.** > 100 µM (inactive)

**Q.** And the GI50 (LOX IMVI)?
**A.** > 100 µM (inactive)

**Q.** What about the GI50 (786-0) of the same molecule?
**A.** 43.6 µM (inactive)

**Q.** What about the GI50 (CCRF-CEM) of the same molecule?
**A.** 52.4 µM (inactive)

**Q.** And the GI50 (OVCAR-8)?
**A.** > 100 µM (inactive)

**Q.** What about the GI50 (NCI-H522) of the same molecule?
**A.** 40.6 µM (inactive)

**Q.** And the GI50 (SK-MEL-2)?
**A.** > 100 µM (inactive)

**Q.** What about the GI50 (HT-29) of the same molecule?
**A.** 18.2 µM (inactive)

**Q.** And the GI50 (MOLT-4)?
**A.** 84.7 µM (inactive)

**Q.** What about the GI50 (CAKI-1) of the same molecule?
**A.** > 100 µM (inactive)

**Q.** What about the GI50 (SK-MEL-5) of the same molecule?
**A.** 71.8 µM (inactive)

**Q.** And the GI50 (HOP-92)?
**A.** > 100 µM (inactive)

**Q.** What about the GI50 (SK-OV-3) of the same molecule?
**A.** > 100 µM (inactive)

**Q.** And the GI50 (MCF7)?
**A.** > 100 µM (inactive)

**Q.** What about the GI50 (U-251) of the same molecule?
**A.** 93.1 µM (inactive)

**Q.** And the GI50 (Hs-578T)?
**A.** > 100 µM (inactive)

**Q.** What about the GI50 (EKVX) of the same molecule?
**A.** > 100 µM (inactive)

**Q.** What about the GI50 (BT-549) of the same molecule?
**A.** > 100 µM (inactive)

**Q.** What about the GI50 (SNB-75) of the same molecule?
**A.** > 100 µM (inactive)

**Q.** And the GI50 (HCT-116)?
**A.** 42.5 µM (inactive)

**Q.** What about the GI50 (NCI/ADR-RES) of the same molecule?
**A.** > 100 µM (inactive)

**Q.** What about the GI50 (NCI-H226) of the same molecule?
**A.** > 100 µM (inactive)

**Q.** And the GI50 (K562)?
**A.** 40.3 µM (inactive)

**Q.** What about the GI50 (SNB-19) of the same molecule?
**A.** > 100 µM (inactive)

**Q.** What about the GI50 (SN12C) of the same molecule?
**A.** > 100 µM (inactive)

**Q.** What about the GI50 (Malme-3M) of the same molecule?
**A.** > 100 µM (inactive)

**Q.** What about the GI50 (KM12) of the same molecule?
**A.** 17.6 µM (inactive)

**Q.** And the GI50 (SK-MEL-28)?
**A.** > 100 µM (inactive)

**Q.** What about the GI50 (RPMI-8226) of the same molecule?
**A.** > 100 µM (inactive)

**Q.** What about the GI50 (SF-295) of the same molecule?
**A.** > 100 µM (inactive)

**Q.** And the GI50 (SW-620)?
**A.** 58.2 µM (inactive)
